# Where a name gives a salt, the structure may show the parent alone. Read-outs that look alike come from different tables or passages of the source.
# Tests used:
# p53 Y220C = p53 Y220C (Homo sapiens, UniProt P04637, Y220C); test: Luciferase Reporter Assay (Luc), p53 response element, NClH1299 cells with inducible p53 Y220C; format: cell-based; settings: 6 hour; for AC50: read-out: Luc P53 Y220C AC50
# Outline: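 Luciferase activity is measured directly after One-Glo addition and a 5-minute room-temperature shake. Before that, cells plated at 5,000 per well receive doxycycline at 0.5 ug/mL for 24 hours, followed by compound for 6 hours.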
# [1] = molecular target: T1, p53 Y220C mutant protein (amino acid residues 94-293) (Homo sapiens, UniProt P04637, Y220C); test: Thermal Shift Assay (TSA), dTM; format: binding; settings: for ΔTm at 10 µM: 10 uM compound; for ΔTm at 100 µM: 100 uM compound, read-out: TSA P53 Y220C dTM (100 uM)
# T1 construct: p53 Y220C mutant protein (amino acid residues 94-293)
# Experimental: Thermal Shift Assay (TSA) Protocol
# 5 μM recombinant p53 Y220C mutant protein (amino acid residues 94-293) was incubated with 10 μM or 100 μM compound for 3 hours at 20 °C in buffer containing 20 mM HEPES, pH7.4, 100 mM NaCl, 0.01% Pluronic F-127, and 1% DMSO in the presence of 400-fold diluted Sypro Orange (ThermoFisher Scientific catalog number 4461146), on a 384-well PCR plate (Applied Biosystems catalog number 4483285). The volume was 5 μL/well. The sealed plate was then loaded onto a QuantStudio 7 Flex instrument for melting temperature (TM) measurement. The temperature was increased from 30 °C to […], at a rate of 0.03 °C/second. Data were fit into a Boltzmann two-state model to determine the TM.
# H1299 p53 Y220C = test: Cell Proliferation Assay (CellTiter-Glo, CTG), H1299 p53 Y220C (NClH1299-inducible p53 Y220C); format: cell-based; settings: Homo sapiens, NCI-H1299, 120 h, 5 days
# Outline: (§1)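 NClH1299 lines stably transduced with Tet-inducible p53 Y220C or R273H, plus NUGC3, were treated with compound for 5 days at 250-500 cells/well. IC50 derived from CellTiter-Glo luminescent signal after 10 min room-temperature incubation.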
# [2] = molecular target: T1, p53 Y220C mutant protein (amino acid residues 94-293); test: Surface Plasmon Resonance (SPR) assay, Kd_kinetic; format: binding; settings: SPR, p53 Y220C, read-out: SPR P53 Y220C KD kinetic
# Outline: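 Biacore 8K SPR; 16 or 20 °C; Tris 50 mM pH 7.5, NaCl 100 mM, DTT 1 mM, Brij35 0.01%, Tween-20 0.05%, DMSO 1%. Kd_kinetic by 1:1 fit.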
# NUGC3 p53 Y220C = test: Cell Proliferation Assay (CellTiter-Glo, CTG), NUGC3 p53 Y220C; format: cell-based; settings: Homo sapiens, NUGC-3, 120 h, 5 days
# Outline: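 Tet-One inducible p53 Y220C or R273H constructs were stably introduced into NCI-H1299 by lentiviral transduction; NUGC3 was used as is. Cells (250-500 per well) were exposed to compound for 5 days, then CellTiter-Glo was added for 10 min at room temperature and IC50 was calculated from luminescence.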
# H1299 p53 R273H = test: Cell Proliferation Assay (CellTiter-Glo, CTG), H1299 p53 R273H (NClH1299-inducible p53 R273H); format: cell-based; settings: Homo sapiens, NCI-H1299, 120 h, 5 days
# Outline: as §1
# [3] = AC50, NClH1299 cells with inducible p53 Y220C
# [4] = Emax, NClH1299 cells with inducible p53 Y220C, 10 uM tool compound as positive control
# [5] = NClH1299-inducible p53 Y220C cells
# [6] = luciferase reporter, NClH1299 inducible p53 Y220C, 10 uM tool compound as positive control
# [7] = luciferase reporter, NClH1299 inducible p53 Y220C
# [8] = AC50, luciferase reporter, NClH1299 inducible p53 Y220C
# [9] = Emax, luciferase reporter, NClH1299 inducible p53 Y220C
# [10] = NClH1299-inducible p53 Y220C cells, CellTiter-Glo
# [11] = NClH1299-inducible p53 R273H cells, CellTiter-Glo
# [12] = NClH1299-inducible p53 R273H cells
SMILES,Kd [2],Emax (p53 Y220C; [6]),AC50 (p53 Y220C; [7]),ΔTm at 100 µM ([1]; thermal shift),"IC50 (H1299 p53 Y220C; CellTiter-Glo, H1299 p53 Y220C)",AC50 (p53 Y220C; [8]),Emax (p53 Y220C; [9]),IC50 (H1299 p53 Y220C; [10]),"IC50 (NUGC3 p53 Y220C; NUGC3 cells, CellTiter-Glo)",IC50 (H1299 p53 R273H; [11]),also measured
"[2H]C([2H])([2H])N1CC[C@@H](Nc2cccn3c(SC(F)(F)F)c(C#CCNc4ccc(C(=O)NC)cc4OC)nc23)[C@@H](F)C1 [Example 476, 4-((3-(8-(((3S,4R)-3-fluoro-1-(methyl-d3)piperidin-4-yl)amino)-3-((trifluoromethyl)thio)imidazo[1,2-a]pyridin-2-yl)prop-2-yn-1-yl)amino)-3-methoxy-N-methylbenzamide]",< 10 nM,–,–,–,–,–,–,–,–,–,AC50 (p53 Y220C; [3]): < 750 nM; Emax (p53 Y220C; [4]): > 90%; ΔTm at 10 µM ([1]; read-out: TSA P53 Y220C dTM): ≥ 10 °C; IC50 (H1299 p53 Y220C; [5]): < 750 nM
"CNC(=O)c1ccc(NCC#Cc2nc3c(NC4CCN(C)CC4)cc(NC(C)=O)cn3c2CC(F)(F)F)c(OC)c1 [Example 41, 4-[(3-{6-acetamido-8-[(1-methylpiperidin-4-yl)amino]-3-(2,2,2-trifluoroethyl)imidazo[1,2-a]pyridin-2-yl}prop-2-yn-1-yl)amino]-3-methoxy-N-methylbenzamide]",–,< 70%,> 3000 nM,1 to 5 °C,> 3000 nM,–,–,–,–,–,"IC50 (NUGC3 p53 Y220C; CellTiter-Glo, NUGC3 p53 Y220C): > 3000 nM; IC50 (H1299 p53 R273H; CellTiter-Glo, H1299 p53 R273H): ≥ 10000 nM"
"CC#Cc1nc2c(N[C@@H]3CCN(C)C[C@@H]3F)cccn2c1CC(F)(F)F [Example 18, (3S,4R)-3-fluoro-1-methyl-N-[2-(prop-1-yn-1-yl)-3-(2,2,2-trifluoroethyl)imidazo[1,2-a]pyridin-8-yl]piperidin-4-amine]",–,< 70%,> 3000 nM,5 to 10 °C,> 3000 nM,–,–,–,–,–,"IC50 (H1299 p53 R273H; CellTiter-Glo, H1299 p53 R273H): ≥ 10000 nM; Kd ([2]; kinetic KD): 10 to 100 nM"
"COc1cc(S(C)(=O)=O)ccc1NCC#Cc1nc2c(NC3CCN(C)CC3)cc(-c3ccccc3)cn2c1CC(F)(F)F [Example 34, N-(2-{3-[(4-methanesulfonyl-2-methoxyphenyl)amino]prop-1-yn-1-yl}-6-phenyl-3-(2,2,2-trifluoroethyl)imidazo [1,2-a]pyridin-8-yl)-1-methylpiperidin-4-amine, formic acid salt]",–,< 70%,> 3000 nM,1 to 5 °C,1500 to 3000 nM,–,–,–,–,–,"IC50 (NUGC3 p53 Y220C; CellTiter-Glo, NUGC3 p53 Y220C): 1500 to 3000 nM; IC50 (H1299 p53 R273H; CellTiter-Glo, H1299 p53 R273H): < 5000 nM"
"C=CC(=O)Nc1c(C#CCNc2ccc(C(=O)NC)cc2OC)nc2c(N[C@@H]3CCN(C)C[C@@H]3F)cccn12 [Example 23, 4-{[3-(8-{[(3S,4R)-3-fluoro-1-methylpiperidin-4-yl]amino}-3-(prop-2-enamido)imidazo[1,2-a]pyridin-2-yl)prop-2-yn-1-yl]amino}-3-methoxy-N-methylbenzamide]",–,< 70%,> 3000 nM,5 to 10 °C,> 3000 nM,–,–,–,–,–,"IC50 (NUGC3 p53 Y220C; CellTiter-Glo, NUGC3 p53 Y220C): > 3000 nM; IC50 (H1299 p53 R273H; CellTiter-Glo, H1299 p53 R273H): ≥ 10000 nM"
CNC(=O)c1ccc(NCC#Cc2nc3c(N[C@@H]4CCN(CC(C)(C)O)C[C@@H]4F)cccn3c2SC(F)(F)F)c(OC)c1 [Example 164],–,80 to 90%,< 750 nM,–,< 750 nM,–,–,–,–,–,"ΔTm at 10 µM ([1]; thermal shift, read-out: TSA P53 Y220C dTM (10 uM)): ≥ 10 °C; Kd ([2]; kinetic KD): < 10 nM"
CNC(=O)c1cnc(OC)c(NCC#Cc2nc3c(N[C@@H]4C[C@H]5CC[C@@H]([C@@H]4F)N5C)cccn3c2SC(F)(F)F)c1 [Example 265],< 10 nM,–,–,–,–,< 750 nM,> 90%,< 750 nM,–,–,"ΔTm at 10 µM ([1]; p53 Y220C, read-out: TSA P53 Y220C dTM): ≥ 10 °C"
"COc1cc(S(C)(=O)=O)ccc1NCC#Cc1nc2c(NC3CCN(C)CC3)cc(NC(=O)OC(C)(C)C)cn2c1CC(F)(F)F [Example 31, tert-butyl N-(2-{3-[(4-methanesulfonyl-2-methoxyphenyl)amino]prop-1-yn-1-yl}-8-[(1-methylpiperidin-4-yl)amino]-3-(2,2,2-trifluoroethyl)imidazo[1,2-a]pyridin-6-yl) carbamate]",–,–,–,1 to 5 °C,–,–,–,–,–,–,–
"CC#Cc1nc2c(NC3CCN(C)CC3)cccn2c1CC(F)(F)F [Example 19, 1-methyl-N-[2-(prop-1-yn-1-yl)-3-(2,2,2-trifluoroethyl)imidazo[1,2-a]pyridin-8-yl]piperidin-4-amine]",–,< 70%,> 3000 nM,5 to 10 °C,> 3000 nM,–,–,–,–,–,"IC50 (H1299 p53 R273H; CellTiter-Glo, H1299 p53 R273H): ≥ 10000 nM; Kd ([2]; kinetic KD): 100 to 1000 nM"
"C=Cc1c(C#CC)nc2c(NC3CCN(C)CC3)cccn12 [Example 21, N-[3-ethenyl-2-(prop-1-yn-1-yl)imidazo[1,2-a]pyridin-8-yl]-1-methylpiperidin-4-amine]",–,–,–,1 to 5 °C,–,–,–,–,–,–,–
CN1CC[C@@H](Nc2cccn3c(SC(F)(F)F)c(C#CCNc4ccc(C(=O)NC[C@H]5CCO5)cc4)cc23)[C@@H](F)C1 [Example 382],< 10 nM,–,–,–,–,< 750 nM,> 90%,< 750 nM,< 750 nM,8000 to 10000 nM,–
CNC(=O)c1ccc(NCC#Cc2cn3c(N[C@@H]4CCN(C)C[C@@H]4F)cccc3c2SC(F)F)c(OC)c1 [Example 440],< 10 nM,–,–,–,–,< 750 nM,> 90%,< 750 nM,< 750 nM,8000 to 10000 nM,–
COc1cc2c(cc1NCC#Cc1cc3c(N[C@@H]4CCN(C)C[C@@H]4F)cccn3c1SC(F)(F)F)CNC2=O [Example 399],< 10 nM,–,–,–,–,< 750 nM,> 90%,< 750 nM,< 750 nM,5000 to 8000 nM,–
CNC(=O)c1cc(NCC#Cc2cc3c(N[C@@H]4CCN(C)C[C@@H]4F)cccn3c2SC(F)(F)F)c2cncn2c1 [Example 479],< 10 nM,–,–,–,–,–,–,–,–,–,IC50 (NUGC3 p53 Y220C; NUGC3 cells): < 750 nM; AC50 (p53 Y220C; [3]): < 750 nM; Emax (p53 Y220C; [4]): > 90%; IC50 (H1299 p53 R273H; [12]): ≥ 10000 nM; IC50 (H1299 p53 Y220C; [5]): < 750 nM
CNC(=O)c1ccc(OC)c(NCC#Cc2cn3c(N[C@@H]4CCN(C)C[C@@H]4F)cccc3c2SC(F)(F)F)c1 [Example 393],< 10 nM,–,–,–,–,< 750 nM,> 90%,< 750 nM,< 750 nM,5000 to 8000 nM,–
CNC(=O)c1ccc(OC)c(NCC#Cc2nc3c(NC4COC4)cccn3c2SC(F)(F)F)c1 [Example 240],< 10 nM,–,–,–,–,< 750 nM,> 90%,< 750 nM,< 750 nM,8000 to 10000 nM,–
O=C(NCC1(O)CC1)c1ccc(NCC#Cc2cc3c(N[C@@H]4CCNC[C@@H]4F)cccn3c2SC(F)(F)F)cc1 [Example 367],< 10 nM,–,–,–,–,< 750 nM,> 90%,< 750 nM,< 750 nM,8000 to 10000 nM,–
O=C(N[C@H]1C[C@H](O)C1)c1ccc(NCC#Cc2cc3c(N[C@@H]4CCNC[C@@H]4F)cccn3c2SC(F)(F)F)cc1 [Example 373],< 10 nM,–,–,–,–,< 750 nM,80 to 90%,< 750 nM,< 750 nM,≥ 10000 nM,–
COc1ccc(C(=O)N[C@H]2C[C@H](O)C2)cc1NCC#Cc1cc2c(N[C@@H]3CCN(C)C[C@@H]3F)cccn2c1SC(F)(F)F [Example 482],< 10 nM,–,–,–,–,–,–,–,–,–,IC50 (NUGC3 p53 Y220C; NUGC3 cells): < 750 nM; AC50 (p53 Y220C; [3]): < 750 nM; Emax (p53 Y220C; [4]): > 90%; IC50 (H1299 p53 R273H; [12]): ≥ 10000 nM; IC50 (H1299 p53 Y220C; [5]): < 750 nM
